Test results taken from PubChem BioAssay (NCI).
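A five-concentration, 48-hour dose response in 96-well plates underlies each endpoint, interpolated linearly between surrounding concentrations. The concentration for full growth arrest is given as TGI.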

Legend:
Assay in all cases: NCI tumour cell line growth inhibition, 48 h
HCC-2998 colon = tested on: HCC-2998 colon
NCI-H460 lung = tested on: NCI-H460 lung
OVCAR-8 ovarian = tested on: OVCAR-8 ovarian
UO-31 renal = tested on: UO-31 renal
NCI-H23 lung = tested on: NCI-H23 lung
HOP-92 NSCLC = tested on: HOP-92 NSCLC
TK-10 renal = tested on: TK-10 renal
SNB-19 CNS = tested on: SNB-19 CNS
IGROV1 ovarian = tested on: IGROV1 ovarian
A549 NSCLC = tested on: A549 NSCLC
SK-MEL-2 melanoma = tested on: SK-MEL-2 melanoma
SW-620 colon = tested on: SW-620 colon
HS 578T breast = tested on: HS 578T breast
OVCAR-4 ovarian = tested on: OVCAR-4 ovarian
K-562 leukemia = tested on: K-562 leukemia
MDA-MB-231 breast = tested on: MDA-MB-231 breast
T-47D breast = tested on: T-47D breast
OVCAR-3 ovarian = tested on: OVCAR-3 ovarian
RXF 393 renal = tested on: RXF 393 renal
KM12 colon = tested on: KM12 colon
A498 renal = tested on: A498 renal
SF-295 CNS = tested on: SF-295 CNS
CAKI-1 renal = tested on: CAKI-1 renal
DU-145 prostate = tested on: DU-145 prostate
NCI/ADR-RES ovarian = tested on: NCI/ADR-RES ovarian
MDA-N = tested on: MDA-N
MALME-3M melanoma = tested on: MALME-3M melanoma
RPMI-8226 leukemia = tested on: RPMI-8226 leukemia
SF-268 CNS = tested on: SF-268 CNS
HOP-62 NSCLC = tested on: HOP-62 NSCLC
HT29 colon = tested on: HT29 colon
M14 melanoma = tested on: M14 melanoma
PC-3 prostate = tested on: PC-3 prostate
CCRF-CEM leukemia = tested on: CCRF-CEM leukemia
NCI-H522 lung = tested on: NCI-H522 lung
SF-539 CNS = tested on: SF-539 CNS
SK-OV-3 ovarian = tested on: SK-OV-3 ovarian
BT-549 breast = tested on: BT-549 breast
SK-MEL-5 melanoma = tested on: SK-MEL-5 melanoma
UACC-62 melanoma = tested on: UACC-62 melanoma
SN12C renal = tested on: SN12C renal
U251 CNS = tested on: U251 CNS
COLO 205 colon = tested on: COLO 205 colon
MCF7 breast = tested on: MCF7 breast
OVCAR-5 ovarian = tested on: OVCAR-5 ovarian
EKVX NSCLC = tested on: EKVX NSCLC
NCI-H226 lung = tested on: NCI-H226 lung
HCT-116 colon = tested on: HCT-116 colon
786-0 renal = tested on: 786-0 renal
HL-60(TB) leukemia = tested on: HL-60(TB) leukemia
ACHN renal = tested on: ACHN renal
UACC-257 melanoma = tested on: UACC-257 melanoma
SR leukemia = tested on: SR leukemia
HCT-15 colon = tested on: HCT-15 colon
LOX IMVI melanoma = tested on: LOX IMVI melanoma
SK-MEL-28 melanoma = tested on: SK-MEL-28 melanoma
MDA-MB-435 = tested on: MDA-MB-435

COc1ccc(NC(=S)N/N=C(\c2ccccc2)c2ccccn2)cc1
TGI (HCC-2998 colon): 22.3 µM | TGI (NCI-H460 lung): 6.47 µM | TGI (OVCAR-8 ovarian): 11.7 µM | TGI (UO-31 renal): 8.73 µM | TGI (NCI-H23 lung): 16.4 µM | TGI (HOP-92 NSCLC): 9.87 µM | TGI (TK-10 renal): 2.27 µM | TGI (SNB-19 CNS): 18.5 µM | TGI (IGROV1 ovarian): 17.2 µM | TGI (A549 NSCLC): 14.2 µM | TGI (SK-MEL-2 melanoma): 14.1 µM | TGI (SW-620 colon): 20.2 µM | TGI (HS 578T breast): 56.8 µM | TGI (OVCAR-4 ovarian): 16.9 µM | TGI (K-562 leukemia): 3.06 µM | TGI (MDA-MB-231 breast): 14.4 µM | TGI (T-47D breast): 13.6 µM | TGI (OVCAR-3 ovarian): 13.2 µM | TGI (RXF 393 renal): 15.7 µM | TGI (KM12 colon): 15.9 µM | TGI (A498 renal): 16 µM | TGI (SF-295 CNS): 9.59 µM | TGI (CAKI-1 renal): 10.5 µM | TGI (DU-145 prostate): 11.2 µM | TGI (NCI/ADR-RES ovarian): 23.8 µM | TGI (MDA-N): 16.2 µM | TGI (MALME-3M melanoma): 11 µM | TGI (RPMI-8226 leukemia): > 20.6 µM | TGI (SF-268 CNS): 14.8 µM | TGI (HOP-62 NSCLC): 5.33 µM | TGI (HT29 colon): 23.6 µM | TGI (M14 melanoma): 2.61 µM | TGI (PC-3 prostate): 17.6 µM | TGI (CCRF-CEM leukemia): > 40.1 µM | TGI (NCI-H522 lung): 15.3 µM | TGI (SF-539 CNS): 3.03 µM | TGI (SK-OV-3 ovarian): 16 µM | TGI (BT-549 breast): 20.2 µM | TGI (SK-MEL-5 melanoma): 6.53 µM | TGI (UACC-62 melanoma): 10.2 µM | TGI (SN12C renal): 7.24 µM | TGI (U251 CNS): 27.1 µM | TGI (COLO 205 colon): 30.3 µM | TGI (MCF7 breast): 0.703 µM | TGI (OVCAR-5 ovarian): 6.5 µM | TGI (EKVX NSCLC): 2.65 µM | TGI (NCI-H226 lung): 2.61 µM | TGI (HCT-116 colon): 13.7 µM | TGI (786-0 renal): 11.2 µM | TGI (HL-60(TB) leukemia): 1.9 µM | TGI (ACHN renal): 10.5 µM | TGI (UACC-257 melanoma): 2.44 µM | TGI (SR leukemia): 5.57 µM | TGI (HCT-15 colon): 15 µM | TGI (LOX IMVI melanoma): 18.4 µM | TGI (SK-MEL-28 melanoma): 18.5 µM | TGI (MDA-MB-435): 16.9 µM
